In patent US20090022915A1, “PARTICLE AND PREPARATION CONTAINING THE PARTICLE” (ONO PHARMACEUTICAL CO., LTD.,, priority 2005, published 2009):

Experiments:
[1] = Absorption test, pulmonary administration (2 mg/kg) of suspension; assay type: in vivo, rhesus monkeys
Method: 1. Pulmonary Administration (2 mg/kg)
Each of three male rhesus monkeys (mean body weight: 3.35 kg, age: 5) was anesthetized with ketamine and, after inserting a bronchial catheter and inserting an administration tube inside the catheter, the suspension produced in Preparation Example 1 was administered into the lung in a dose of 2 mg/kg. Before and after administration (0.25, 0.5, 1, 2, 3, 4, 6, and 8 hours), blood was collected from the cubital cutaneous vein and the obtained blood was centrifugally separated to obtain blood plasma, and then the concentration of the compound 1 was measured.
(§1) 5. Intravenous Administration (0.4 mg/kg)
(§2) The preparation produced in Comparative Example 3 was intravenously administered to each of three male cynomolgus monkeys (mean body weight: 4 kg, age: 5 to 6) in the concentration of 0.4 mg/kg. After administration, blood was collected from the cubital cutaneous vein and the obtained blood was centrifugally separated to obtain blood plasma, and then the concentration of the compound 1 was measured.
(§3) Also, a bioavailability (BA (%)) was calculated from the obtained results.
(§4) BA denotes a numerical value represented by “(AUC of pulmonary administration/dose of pulmonary administration)/(AUC of intravenous administration/dose of intravenous administration)×100” (%), and AUC denotes an area under the blood concentration time curve (ng·hr/ml).

[2] = Particle size measurement by laser diffraction particle size distribution analyzer; assay type: physicochemical; conditions: volume mean diameter
Method: The “mean particle size” means a particle size which represents a group of particles, when the group of particles is composed of a lot of particles each having a non-uniform size. The mean particle size includes, but is not limited to, weighting averages such as a number mean diameter, a length mean diameter, an area mean diameter, a volume mean diameter and the like, and means the volume mean diameter in the present invention.
For the measurement of the particle size, a hexane solution (20 mM) of Aerosol OT was used as a disperse medium. Particles to be measured were placed in a test tube and 1 mL of the disperse medium was added to obtain a suspension. The suspension was subjected to an ultrasonic treatment for one minute and the particle size was measured using a laser diffraction particle size distribution analyzer (SALD-2100: Shimadzu Corporation). In the case of measuring the particle size of particles in the suspension, an aqueous 0.1% Polysorbate 80 solution was used as the disperse medium in place of Aerosol OT.

[3] = Absorption test, oral administration (3 mg/kg) of microemulsion preparation; assay type: in vivo; conditions: rhesus monkey, plasma, preparation of Comparative Example 1, male rhesus monkeys, relative to intravenous 0.4 mg/kg, read-out: bioavailability (BA)
Method: 3. Oral Administration (3 mg/kg)
An oral administration tube was inserted through the mouth of each of three male rhesus monkeys (mean body weight: 3.5 kg, age: 3) and 5.25 mL (3 mg/kg) of the preparation produced in Comparative Example 1 was orally administrated. After administration (0.5, 1, 2, 4, and 6 hours), blood was collected from the cubital cutaneous vein and the obtained blood was centrifugally separated to obtain blood plasma, and then the concentration of the compound 1 was measured.
as §1, §2, §3, §4

Solubility in water = assay type: physicochemical
[4] = Absorption test, pulmonary administration (0.2 mg/kg) of suspension; assay type: in vivo; conditions: cynomolgus monkey, plasma, suspension of Preparation Example 2, male cynomolgus monkeys, relative to intravenous 0.4 mg/kg, read-out: bioavailability (BA)
Method: 2. Pulmonary Administration (0.2 mg/kg)
Each of three male cynomolgus monkeys (mean body weight: 3.5 to 4.5 kg, age: 5 to 6) was anesthetized with ketamine and, after inserting a bronchial catheter and inserting an administration tube inside the catheter, the suspension produced in Preparation Example 2 was administered into the lung in a dose of 0.2 mg/kg. Before and after administration (0.25, 0.5, 1, 2, 3, 4, 8 and 12 hours), blood was collected from the cephalic vein and the obtained blood was centrifugally separated to obtain blood plasma, and then the concentration of the compound 1 was measured.
as §1, §2, §3, §4

- improvement in BA ([1]; pulmonary administration versus oral administration): ≥ 450 times
- bioavailability ([1]; rhesus monkey, plasma, pulmonary administration 2 mg/kg, suspension of Preparation Example 1, male rhesus monkeys, relative to intravenous 0.4 mg/kg, read-out: bioavailability (BA)): 93.4%
- Mean particle size (μm) [2]: about 120 μm
- bioavailability [3]: 0.2%
- solubility in water (Solubility in water): poorly soluble in water
- bioavailability [4]: 103%
Compound: CC(C)(C)OC(=O)N1CSC[C@H]1C(=O)N[C@@H](CSCC1CCCCC1)C(=O)NC1CCN(Cc2ccccc2)CC1 [compound 1, Tert-butyl (4R)-4-{[((1R)-2-[(1-benzylpiperidin-4-yl)amino]-1-{[(cyclohexylmethyl)thio]methyl}-2-oxoethyl)amino]carbonyl}-1,3-thiazolidine-3-carboxylate]
